Source: patent US20260224588A1, “BENZODIAZEPINONE-DERIVED INHIBITORS OF EGFR AND HER2” (The Research Foundation for the State University of New York, priority 2023, published 2026)

Columns and labels:
Assay in all cases: KINOMEscan
Type in all cases: binding
Details in all cases: 1 μM of compound 4; read-out: POC
[1] = biological target: T1, SIK (Homo sapiens, UniProt P57059)
T1 construct: purchased Eurofins DiscoverX (KINOMEscan service)

[2] = biological target: T2, ABL1(F317I)-nonphosphorylated (Homo sapiens, UniProt P00519, F317I)
T2 construct: purchased Eurofins DiscoverX Corporation

[3] = biological target: T3, p38-gamma (Homo sapiens, UniProt P53778)
T3 construct: purchased Eurofins DiscoverX Corporation (KINOMEscan)
T3 sequence (P53778 whole entry): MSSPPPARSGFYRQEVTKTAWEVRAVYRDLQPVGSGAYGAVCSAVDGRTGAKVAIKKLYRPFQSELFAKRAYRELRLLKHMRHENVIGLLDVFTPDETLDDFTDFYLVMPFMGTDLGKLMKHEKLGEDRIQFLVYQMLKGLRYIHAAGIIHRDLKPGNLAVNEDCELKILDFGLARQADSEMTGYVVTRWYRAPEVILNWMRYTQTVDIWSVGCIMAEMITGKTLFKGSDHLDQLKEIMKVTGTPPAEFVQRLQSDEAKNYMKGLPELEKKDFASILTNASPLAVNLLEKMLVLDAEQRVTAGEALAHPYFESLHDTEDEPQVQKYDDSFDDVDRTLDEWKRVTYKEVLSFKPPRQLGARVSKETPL

[4] = biological target: DDR2 (Homo sapiens, UniProt Q16832)
Sequence of DDR2 (Q16832 22-855): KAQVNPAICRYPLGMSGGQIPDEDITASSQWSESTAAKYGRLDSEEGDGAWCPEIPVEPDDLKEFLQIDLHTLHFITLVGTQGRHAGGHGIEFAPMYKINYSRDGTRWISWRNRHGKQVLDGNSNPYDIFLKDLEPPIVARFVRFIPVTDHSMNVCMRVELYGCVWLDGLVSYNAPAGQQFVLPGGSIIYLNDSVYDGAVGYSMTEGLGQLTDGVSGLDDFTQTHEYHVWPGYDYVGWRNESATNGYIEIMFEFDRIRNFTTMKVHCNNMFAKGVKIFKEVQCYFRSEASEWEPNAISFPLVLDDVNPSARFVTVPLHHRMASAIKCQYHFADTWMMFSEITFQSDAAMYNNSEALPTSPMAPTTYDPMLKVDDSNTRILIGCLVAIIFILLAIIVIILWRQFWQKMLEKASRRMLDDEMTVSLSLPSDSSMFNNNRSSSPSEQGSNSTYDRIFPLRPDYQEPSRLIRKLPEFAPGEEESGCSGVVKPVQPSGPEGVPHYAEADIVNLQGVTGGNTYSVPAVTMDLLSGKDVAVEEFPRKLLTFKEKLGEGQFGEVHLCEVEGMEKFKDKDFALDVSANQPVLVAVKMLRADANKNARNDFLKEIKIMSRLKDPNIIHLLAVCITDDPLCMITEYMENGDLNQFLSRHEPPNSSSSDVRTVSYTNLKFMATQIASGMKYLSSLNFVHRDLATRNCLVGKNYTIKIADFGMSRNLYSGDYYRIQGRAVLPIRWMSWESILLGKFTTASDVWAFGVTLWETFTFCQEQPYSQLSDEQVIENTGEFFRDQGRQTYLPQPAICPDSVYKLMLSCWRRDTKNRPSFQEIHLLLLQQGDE

[5] = biological target: PIP5K2C (Homo sapiens, UniProt Q8TBX8)
[6] = biological target: T4, FGFR3 (Homo sapiens, UniProt P22607)
T4 construct: purchased Eurofins DiscoverX Corporation
T4 sequence (P22607 23-806): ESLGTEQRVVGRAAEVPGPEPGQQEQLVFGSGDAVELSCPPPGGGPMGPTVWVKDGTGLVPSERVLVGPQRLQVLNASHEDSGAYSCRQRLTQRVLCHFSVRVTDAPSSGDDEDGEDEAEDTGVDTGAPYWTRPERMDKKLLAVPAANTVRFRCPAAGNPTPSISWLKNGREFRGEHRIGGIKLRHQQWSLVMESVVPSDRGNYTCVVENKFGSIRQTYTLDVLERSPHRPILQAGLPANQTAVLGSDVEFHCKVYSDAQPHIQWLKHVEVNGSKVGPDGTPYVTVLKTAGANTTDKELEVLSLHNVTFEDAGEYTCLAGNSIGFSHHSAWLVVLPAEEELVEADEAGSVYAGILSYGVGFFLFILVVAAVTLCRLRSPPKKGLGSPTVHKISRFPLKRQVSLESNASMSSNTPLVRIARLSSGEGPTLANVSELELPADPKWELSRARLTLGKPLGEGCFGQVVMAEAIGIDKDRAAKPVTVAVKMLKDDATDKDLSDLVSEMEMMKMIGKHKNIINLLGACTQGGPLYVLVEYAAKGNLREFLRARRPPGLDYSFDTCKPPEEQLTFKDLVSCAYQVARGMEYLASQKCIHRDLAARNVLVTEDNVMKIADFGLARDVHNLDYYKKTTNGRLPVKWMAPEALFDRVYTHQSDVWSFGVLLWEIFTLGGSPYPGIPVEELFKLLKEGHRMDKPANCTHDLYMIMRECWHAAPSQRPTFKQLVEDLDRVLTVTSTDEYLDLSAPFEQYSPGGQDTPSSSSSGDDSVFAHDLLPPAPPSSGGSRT

[7] = biological target: T5, FGR (Homo sapiens, UniProt P09769)
T5 construct: purchased Eurofins DiscoverX Corporation
T5 sequence (P09769 whole entry): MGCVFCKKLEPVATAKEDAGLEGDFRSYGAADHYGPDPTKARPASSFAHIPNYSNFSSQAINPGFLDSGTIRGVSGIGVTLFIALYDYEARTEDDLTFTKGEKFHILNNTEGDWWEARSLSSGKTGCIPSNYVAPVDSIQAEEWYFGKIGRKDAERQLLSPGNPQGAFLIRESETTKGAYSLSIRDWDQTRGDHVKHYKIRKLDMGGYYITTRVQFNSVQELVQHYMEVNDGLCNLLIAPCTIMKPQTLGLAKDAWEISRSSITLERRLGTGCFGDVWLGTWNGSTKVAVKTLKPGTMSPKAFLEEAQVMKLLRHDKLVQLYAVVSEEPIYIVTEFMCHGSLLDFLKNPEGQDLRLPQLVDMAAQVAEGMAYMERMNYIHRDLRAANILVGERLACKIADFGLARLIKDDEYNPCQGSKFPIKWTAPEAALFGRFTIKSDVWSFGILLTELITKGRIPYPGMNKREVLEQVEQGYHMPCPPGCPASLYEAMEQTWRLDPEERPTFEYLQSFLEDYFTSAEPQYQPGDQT

[8] = biological target: MAP4K5 (Homo sapiens, UniProt Q9Y4K4)
[9] = biological target: T6, PAK3 (Homo sapiens, UniProt O75914)
T6 construct: purchased Eurofins DiscoverX Corporation (KINOMEscan)
T6 sequence (O75914 whole entry): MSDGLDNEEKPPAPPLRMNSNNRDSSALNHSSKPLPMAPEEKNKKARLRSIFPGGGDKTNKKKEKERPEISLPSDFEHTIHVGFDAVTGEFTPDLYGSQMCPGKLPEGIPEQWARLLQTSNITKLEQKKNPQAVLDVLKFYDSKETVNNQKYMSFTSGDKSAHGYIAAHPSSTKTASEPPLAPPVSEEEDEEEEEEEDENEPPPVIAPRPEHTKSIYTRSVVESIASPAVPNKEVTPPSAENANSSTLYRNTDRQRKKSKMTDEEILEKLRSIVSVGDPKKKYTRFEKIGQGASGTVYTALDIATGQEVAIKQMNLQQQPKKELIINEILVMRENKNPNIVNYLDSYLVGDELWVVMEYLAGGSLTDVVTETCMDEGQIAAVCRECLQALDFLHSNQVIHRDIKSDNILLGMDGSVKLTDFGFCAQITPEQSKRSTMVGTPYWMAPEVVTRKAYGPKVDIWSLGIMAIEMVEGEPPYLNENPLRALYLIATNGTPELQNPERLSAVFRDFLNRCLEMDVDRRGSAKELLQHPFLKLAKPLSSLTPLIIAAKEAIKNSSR

[10] = biological target: BRSK1 (Homo sapiens, UniProt Q8TDC3)
[11] = biological target: MST1 (Homo sapiens, UniProt Q13043)
Sequence of MST1 (Q13043 whole entry): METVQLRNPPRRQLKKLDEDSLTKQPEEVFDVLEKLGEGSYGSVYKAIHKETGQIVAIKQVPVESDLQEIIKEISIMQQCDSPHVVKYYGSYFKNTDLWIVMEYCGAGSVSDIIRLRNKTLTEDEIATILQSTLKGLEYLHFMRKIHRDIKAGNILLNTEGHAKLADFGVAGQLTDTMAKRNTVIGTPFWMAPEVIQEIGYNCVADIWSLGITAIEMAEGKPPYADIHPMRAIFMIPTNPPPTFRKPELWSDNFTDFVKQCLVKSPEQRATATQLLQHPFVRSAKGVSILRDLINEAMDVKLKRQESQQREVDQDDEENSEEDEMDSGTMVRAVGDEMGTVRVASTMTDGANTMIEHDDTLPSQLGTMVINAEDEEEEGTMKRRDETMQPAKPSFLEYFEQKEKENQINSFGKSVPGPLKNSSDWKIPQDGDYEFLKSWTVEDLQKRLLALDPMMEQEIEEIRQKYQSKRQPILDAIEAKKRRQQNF

[12] = biological target: T7, ABL1(Q252H)-phosphorylated (Homo sapiens, UniProt P00519, Q252H)
T7 construct: purchased Eurofins DiscoverX Corporation

[13] = biological target: T8, VEGFR2 (Homo sapiens, UniProt P35968)
T8 construct: purchased Eurofins DiscoverX
T8 sequence (P35968 20-1356): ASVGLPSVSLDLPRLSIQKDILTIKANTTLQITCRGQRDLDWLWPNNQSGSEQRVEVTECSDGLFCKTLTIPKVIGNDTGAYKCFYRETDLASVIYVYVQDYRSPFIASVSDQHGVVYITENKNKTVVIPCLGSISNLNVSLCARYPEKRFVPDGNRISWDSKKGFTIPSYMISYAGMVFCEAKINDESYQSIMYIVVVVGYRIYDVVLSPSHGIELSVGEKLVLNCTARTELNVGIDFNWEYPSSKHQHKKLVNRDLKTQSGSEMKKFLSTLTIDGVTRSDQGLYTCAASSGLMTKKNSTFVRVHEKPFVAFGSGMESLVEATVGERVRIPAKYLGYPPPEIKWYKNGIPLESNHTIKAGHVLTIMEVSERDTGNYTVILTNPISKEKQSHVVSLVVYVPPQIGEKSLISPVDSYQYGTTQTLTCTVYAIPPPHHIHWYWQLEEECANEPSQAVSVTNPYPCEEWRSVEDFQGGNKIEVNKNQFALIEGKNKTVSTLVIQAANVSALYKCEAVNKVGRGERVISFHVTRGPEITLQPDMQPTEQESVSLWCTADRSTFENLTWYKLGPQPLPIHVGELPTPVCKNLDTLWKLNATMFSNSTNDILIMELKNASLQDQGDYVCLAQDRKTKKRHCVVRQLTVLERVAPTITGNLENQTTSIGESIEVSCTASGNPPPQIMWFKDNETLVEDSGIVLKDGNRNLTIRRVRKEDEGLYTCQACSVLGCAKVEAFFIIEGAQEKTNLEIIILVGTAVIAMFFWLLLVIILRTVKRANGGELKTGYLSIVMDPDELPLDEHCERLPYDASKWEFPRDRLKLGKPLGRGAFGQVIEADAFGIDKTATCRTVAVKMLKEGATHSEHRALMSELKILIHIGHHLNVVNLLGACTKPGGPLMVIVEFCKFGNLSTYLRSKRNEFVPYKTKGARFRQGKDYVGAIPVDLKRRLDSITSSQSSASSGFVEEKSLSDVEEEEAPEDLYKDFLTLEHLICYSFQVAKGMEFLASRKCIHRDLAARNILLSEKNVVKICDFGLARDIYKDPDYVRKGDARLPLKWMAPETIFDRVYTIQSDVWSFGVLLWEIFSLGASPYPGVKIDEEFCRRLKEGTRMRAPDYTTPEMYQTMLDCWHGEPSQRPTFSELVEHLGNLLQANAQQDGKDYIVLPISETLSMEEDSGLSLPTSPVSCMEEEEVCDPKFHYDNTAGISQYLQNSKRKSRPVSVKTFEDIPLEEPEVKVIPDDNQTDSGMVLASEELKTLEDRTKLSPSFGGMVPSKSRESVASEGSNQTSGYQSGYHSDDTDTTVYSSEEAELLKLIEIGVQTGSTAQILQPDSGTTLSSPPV

How did the remaining binding at 1 µM [1] turn out when `C=CC(=O)Nc1ccc(OC)c(Nc2cc(-c3[nH]c(CC)nc3-c3cccc(NC(=O)c4cccc5c4NC(=O)c4ccccc4N5)c3)ccn2)c1` [Compound 4, N-(3-(5-(2-((5-Acrylamido-2-methoxyphenyl)amino)pyridin-4-yl)-2-ethyl-1H-imidazol-4-yl)phenyl)-11-oxo-10,11-dihydro-5H-dibenzo[b,e][1,4]diazepine-9-carboxamide] was run?
The remaining binding at 1 µM was 100%.

What about the remaining binding at 1 µM [2] of the same compound?
The remaining binding at 1 µM was 40%.

And the remaining binding at 1 µM [3]?
Its remaining binding at 1 µM is 100%.

And the remaining binding at 1 µM [4]?
Its remaining binding at 1 µM is 100%.

What about the remaining binding at 1 µM [5] of the same compound?
Its remaining binding at 1 µM is 66%.

What about the remaining binding at 1 µM [6] of the same compound?
The remaining binding at 1 µM was 94%.

What about the remaining binding at 1 µM [7] of the same compound?
Its remaining binding at 1 µM is 19%.

What about the remaining binding at 1 µM [8] of the same compound?
Its remaining binding at 1 µM is 2.5%.

And the remaining binding at 1 µM [9]?
The remaining binding at 1 µM was 70%.

What about the remaining binding at 1 µM [10] of the same compound?
The remaining binding at 1 µM was 100%.

And the remaining binding at 1 µM [11]?
Its remaining binding at 1 µM is 6%.

What about the remaining binding at 1 µM [12] of the same compound?
Its remaining binding at 1 µM is 90%.

And the remaining binding at 1 µM [13]?
The remaining binding at 1 µM was 100%.
